Assay results: the NIST ThermoML archive (doi:10.1016/j.fluid.2013.06.021)

Experiment: xn = mol fraction of the nth substance listed
Details: 101 kPa, Liquid; for speed of sound: Sing-around technique in a fixed-path interferometer; for mass density: Vibrating tube method; for viscosity: Capillary tube (Ostwald / Ubbelohde) method

CCCCOCCO [2-butoxyethan-1-ol] + CCCCO
Details	mass density [kg/m3]	speed of sound [m/s]	viscosity [mPa·s]
293.15 K, x1 = 0.0516	816.39	1262.2	–
293.15 K, x1 = 0.1011	822.44	1266.6	–
293.15 K, x1 = 0.1535	828.64	1271.1	–
293.15 K, x1 = 0.2027	834.27	1275.2	–
293.15 K, x1 = 0.2537	839.84	1279.2	–
293.15 K, x1 = 0.3027	844.99	1282.9	–
293.15 K, x1 = 0.4	854.57	1289.8	–
293.15 K, x1 = 0.5055	864.12	1296.7	–
293.15 K, x1 = 0.6054	872.48	1302.5	–
293.15 K, x1 = 0.7025	880.07	1307.9	–
293.15 K, x1 = 0.8042	887.49	1313.2	–
293.15 K, x1 = 0.8552	891.03	1315.9	–
293.15 K, x1 = 0.906	894.44	1318.5	–
293.15 K, x1 = 0.9526	897.48	1320.9	–
298.15 K, x1 = 0.0516	812.543	1245.2	2.586
298.15 K, x1 = 0.1011	818.58	1249.7	2.553
298.15 K, x1 = 0.1535	824.722	1254.2	2.536
298.15 K, x1 = 0.2027	830.281	1258.3	2.524
298.15 K, x1 = 0.2537	835.832	1262.3	2.516
298.15 K, x1 = 0.3027	840.96	1266.1	–
298.15 K, x1 = 0.3028	–	–	2.516
298.15 K, x1 = 0.4	850.503	1272.9	2.527
298.15 K, x1 = 0.5055	860.043	1279.7	2.555
298.15 K, x1 = 0.6054	868.393	1285.6	2.592
298.15 K, x1 = 0.7025	875.94	1290.9	2.645
298.15 K, x1 = 0.8042	883.317	1296.2	2.703
298.15 K, x1 = 0.8552	886.83	1298.8	2.743
298.15 K, x1 = 0.906	890.248	1301.4	2.785
298.15 K, x1 = 0.9526	893.29	1303.8	2.835
303.15 K, x1 = 0.0516	808.67	1228.5	2.269
303.15 K, x1 = 0.1011	814.69	1233	2.243
303.15 K, x1 = 0.1535	820.82	1237.5	2.235
303.15 K, x1 = 0.2027	826.35	1241.5	2.234
303.15 K, x1 = 0.2537	831.87	1245.5	2.229
303.15 K, x1 = 0.3027	836.98	1249.1	–
303.15 K, x1 = 0.3028	–	–	2.235
303.15 K, x1 = 0.4	846.49	1255.9	2.255
303.15 K, x1 = 0.5055	855.99	1262.6	2.303
303.15 K, x1 = 0.6054	864.3	1268.6	2.345
303.15 K, x1 = 0.7025	871.83	1274	2.401
303.15 K, x1 = 0.8042	879.17	1279.4	2.475
303.15 K, x1 = 0.8552	882.67	1282	2.518
303.15 K, x1 = 0.906	886.07	1284.5	2.564
303.15 K, x1 = 0.9526	889.1	1286.7	2.607
308.15 K, x1 = 0.0516	804.78	1211.8	2.029
308.15 K, x1 = 0.1011	810.77	1216.3	2.008
308.15 K, x1 = 0.1535	816.87	1220.7	1.994
308.15 K, x1 = 0.2027	822.39	1224.7	1.98
308.15 K, x1 = 0.2537	827.9	1228.7	1.966
308.15 K, x1 = 0.3027	832.98	1232.3	–
308.15 K, x1 = 0.3028	–	–	1.965
308.15 K, x1 = 0.4	842.45	1239.1	1.968
308.15 K, x1 = 0.5055	851.91	1245.9	1.981
308.15 K, x1 = 0.6054	860.19	1251.9	2.006
308.15 K, x1 = 0.7025	867.68	1257.4	2.045
308.15 K, x1 = 0.8042	875.01	1262.8	2.106
308.15 K, x1 = 0.8552	878.5	1265.3	2.138
308.15 K, x1 = 0.906	881.88	1267.8	2.175
308.15 K, x1 = 0.9526	884.89	1270	2.204
313.15 K, x1 = 0.0516	800.853	1195.2	–
313.15 K, x1 = 0.1011	806.824	1199.7	–
313.15 K, x1 = 0.1535	812.87	1204.1	–
313.15 K, x1 = 0.2027	818.34	1208.2	–
313.15 K, x1 = 0.2537	823.81	1212.2	–
313.15 K, x1 = 0.3027	828.88	1215.9	–
313.15 K, x1 = 0.4	838.34	1222.7	–
313.15 K, x1 = 0.5055	847.79	1229.5	–
313.15 K, x1 = 0.6054	856.04	1235.4	–
313.15 K, x1 = 0.7025	863.5	1240.7	–
313.15 K, x1 = 0.8042	870.78	1246	–
313.15 K, x1 = 0.8552	874.26	1248.5	–
313.15 K, x1 = 0.906	877.63	1251	–
313.15 K, x1 = 0.9526	880.64	1253.2	–

CCCCOCCO [2-butoxyethan-1-ol] + CCCO
Details	mass density [kg/m3]	speed of sound [m/s]	viscosity [mPa·s]
293.15 K, x1 = 0.052	812.72	1233.5	–
293.15 K, x1 = 0.1024	820.5	1241.8	–
293.15 K, x1 = 0.1524	827.69	1249.4	–
293.15 K, x1 = 0.1986	833.97	1255.9	–
293.15 K, x1 = 0.2528	840.79	1263	–
293.15 K, x1 = 0.3032	846.73	1269.1	–
293.15 K, x1 = 0.4064	857.67	1280.4	–
293.15 K, x1 = 0.5015	866.6	1289.5	–
293.15 K, x1 = 0.6031	875.08	1298.1	–
293.15 K, x1 = 0.7006	882.33	1305.4	–
293.15 K, x1 = 0.8022	889.07	1312.2	–
293.15 K, x1 = 0.8553	892.31	1315.4	–
293.15 K, x1 = 0.9066	895.25	1318.3	–
293.15 K, x1 = 0.9516	897.7	1320.8	–
298.15 K, x1 = 0.052	808.78	1216.5	1.991
298.15 K, x1 = 0.1024	816.6	1224.8	2.014
298.15 K, x1 = 0.1524	823.84	1232.3	2.048
298.15 K, x1 = 0.1986	830.06	1238.9	2.079
298.15 K, x1 = 0.2528	836.87	1245.9	2.122
298.15 K, x1 = 0.3032	842.76	1252	2.163
298.15 K, x1 = 0.4064	853.64	1263.3	2.256
298.15 K, x1 = 0.5015	862.56	1272.3	2.351
298.15 K, x1 = 0.6031	871.01	1280.9	2.457
298.15 K, x1 = 0.7006	878.24	1288.3	2.558
298.15 K, x1 = 0.8022	884.94	1295.1	2.666
298.15 K, x1 = 0.8553	888.19	1298.3	2.725
298.15 K, x1 = 0.9066	891.15	1301.3	2.779
298.15 K, x1 = 0.9516	893.62	1303.7	2.83
303.15 K, x1 = 0.052	804.75	1199.4	1.751
303.15 K, x1 = 0.1024	812.56	1207.8	1.776
303.15 K, x1 = 0.1524	819.76	1215.4	1.811
303.15 K, x1 = 0.1986	825.96	1221.9	1.844
303.15 K, x1 = 0.2528	832.81	1229	1.883
303.15 K, x1 = 0.3032	838.66	1235.1	1.925
303.15 K, x1 = 0.4064	849.51	1246.3	2.027
303.15 K, x1 = 0.5015	858.44	1255.4	2.129
303.15 K, x1 = 0.6031	866.86	1264	2.233
303.15 K, x1 = 0.7006	874.08	1271.3	2.338
303.15 K, x1 = 0.8022	880.81	1278	2.443
303.15 K, x1 = 0.8553	884.07	1281.3	2.505
303.15 K, x1 = 0.9066	887.02	1284.2	2.559
303.15 K, x1 = 0.9516	889.53	1286.6	2.615
308.15 K, x1 = 0.052	800.67	1182.4	1.578
308.15 K, x1 = 0.1024	808.47	1190.8	1.597
308.15 K, x1 = 0.1524	815.69	1198.4	1.627
308.15 K, x1 = 0.1986	821.89	1205	1.657
308.15 K, x1 = 0.2528	828.69	1212.1	1.69
308.15 K, x1 = 0.3032	834.55	1218.3	1.726
308.15 K, x1 = 0.4064	845.38	1229.5	1.804
308.15 K, x1 = 0.5015	854.29	1238.6	1.874
308.15 K, x1 = 0.6031	862.71	1247.2	1.953
308.15 K, x1 = 0.7006	869.93	1254.4	2.026
308.15 K, x1 = 0.8022	876.64	1261.1	2.11
308.15 K, x1 = 0.8553	879.9	1264.3	2.156
308.15 K, x1 = 0.9066	882.86	1267.2	2.188
308.15 K, x1 = 0.9516	885.32	1269.7	2.218
313.15 K, x1 = 0.052	796.66	1165.4	–
313.15 K, x1 = 0.1024	804.45	1173.7	–
313.15 K, x1 = 0.1524	811.62	1181.4	–
313.15 K, x1 = 0.1986	817.8	1188	–
313.15 K, x1 = 0.2528	824.54	1195.2	–
313.15 K, x1 = 0.3032	830.4	1201.5	–
313.15 K, x1 = 0.4064	841.23	1212.9	–
313.15 K, x1 = 0.5015	850.1	1222	–
313.15 K, x1 = 0.6031	858.52	1230.6	–
313.15 K, x1 = 0.7006	865.71	1237.8	–
313.15 K, x1 = 0.8022	872.48	1244.4	–
313.15 K, x1 = 0.8553	875.69	1247.6	–
313.15 K, x1 = 0.9066	878.69	1250.5	–
313.15 K, x1 = 0.9516	881.14	1252.9	–
